Earlier results in PubChem BioAssay AID1259409 (Chemical Carcinogenesis Research Information System (CCRIS), 2018).

Test system: rodent chemically induced tumor inhibition, incidence and multiplicity
Test: CCRIS tumor inhibitor studies
Details: Dose [Inhibitor]: 0, Species: RAT, Promoter: NONE USED

## O=C(O)C[CH2][Ge](=[O])[O][Ge](=[O])[CH2]CC(=O)O
Carcinogen: 1,2-DIMETHYLHYDRAZINE, 540-73-8, 100 MG/KG BW 1/D FOR FIRST 8 WK THEN 1/2 D FOR 19 WK (STUDY DURATION: 27 WK), Route [Inhibitor]: GAVAGE, Strain/Sex: WISTAR/MALE, Target Tissue: Type of Lesion: COLON: TUMOR, Dose [Carcinogen]: 20 MG/KG BW 1/WK FOR 15 WK
  tumour outcome (control, treated, inhibition, significance): 36/36 (100%), 33/35 (94%), 6%, not significant
Carcinogen: DIETHYLNITROSAMINE, 55-18-5, N-METHYL-N-NITROSOUREA, 684-93-5, N,N-DIBUTYLNITROSAMINE, 924-16-3, Carcinogen: DIETHYLNITROSAMINE, 55-18-5, N-METHYL-N-NITROSOUREA, 684-93-5, N,N-DIBUTYLNITROSAMINE, 924-16-3, 0.05% IN DIET BEGINNING POST CARCINOGEN TREATMENT AND CONTINUING TO WK 40 (STUDY DURATION: 40 WK), Route [Inhibitor]: ORAL, Strain/Sex: F344/MALE, Target Tissue: Type of Lesion: LUNG: ADENOMA, Dose [Carcinogen]: 100 MG/KG DIETHYLNITROSAMINE ONCE FOLLOWED BY 20 MG/KG N-METHYL-N-NITROSOUREA ON D 2, 5, 8 AND 11 THEN 0.05% N-N-DIBUTYL
  tumour outcome (control, treated, inhibition, significance): 9/16 (56%), 1/19 (5%), 91%, p<0.001
Carcinogen: DIETHYLNITROSAMINE, 55-18-5, N-METHYL-N-NITROSOUREA, 684-93-5, N,N-DIBUTYLNITROSAMINE, 924-16-3, Carcinogen: DIETHYLNITROSAMINE, 55-18-5, N-METHYL-N-NITROSOUREA, 684-93-5, N,N-DIBUTYLNITROSAMINE, 924-16-3, 0.05% IN DIET BEGINNING POST CARCINOGEN TREATMENT AND CONTINUING TO WK 40 (STUDY DURATION: 40 WK), Route [Inhibitor]: ORAL, Strain/Sex: F344/MALE, Target Tissue: Type of Lesion: LUNG: CARCINOMA, Dose [Carcinogen]: 100 MG/KG DIETHYLNITROSAMINE ONCE FOLLOWED BY 20 MG/KG N-METHYL-N-NITROSOUREA ON D 2, 5, 8 AND 11 THEN 0.05% N-N-DIBUTYL
  tumour outcome (control, treated, inhibition, significance): 3/16 (19%), 0/19 (0%), 100%, not calculated
Carcinogen: DIETHYLNITROSAMINE, 55-18-5, N-METHYL-N-NITROSOUREA, 684-93-5, N,N-DIBUTYLNITROSAMINE, 924-16-3, Carcinogen: DIETHYLNITROSAMINE, 55-18-5, N-METHYL-N-NITROSOUREA, 684-93-5, N,N-DIBUTYLNITROSAMINE, 924-16-3, 0.05% IN DIET BEGINNING POST CARCINOGEN TREATMENT AND CONTINUING TO WK 40 (STUDY DURATION: 40 WK), Route [Inhibitor]: ORAL, Strain/Sex: F344/MALE, Target Tissue: Type of Lesion: THYROID: ADENOMA, Dose [Carcinogen]: 100 MG/KG DIETHYLNITROSAMINE ONCE FOLLOWED BY 20 MG/KG N-METHYL-N-NITROSOUREA ON D 2, 5, 8 AND 11 THEN 0.05% N-N-DIBUTYL
  tumour outcome (control, treated, inhibition, significance): 8/16 (50%), 2/19 (11%), 78%, p<0.02
Carcinogen: DIETHYLNITROSAMINE, 55-18-5, N-METHYL-N-NITROSOUREA, 684-93-5, N,N-DIBUTYLNITROSAMINE, 924-16-3, Carcinogen: DIETHYLNITROSAMINE, 55-18-5, N-METHYL-N-NITROSOUREA, 684-93-5, N,N-DIBUTYLNITROSAMINE, 924-16-3, 0.05% IN DIET BEGINNING POST CARCINOGEN TREATMENT AND CONTINUING TO WK 40 (STUDY DURATION: 40 WK), Route [Inhibitor]: ORAL, Strain/Sex: F344/MALE, Target Tissue: Type of Lesion: THYROID: CARCINOMA, Dose [Carcinogen]: 100 MG/KG DIETHYLNITROSAMINE ONCE FOLLOWED BY 20 MG/KG N-METHYL-N-NITROSOUREA ON D 2, 5, 8 AND 11 THEN 0.05% N-N-DIBUTYL
  tumour outcome (control, treated, inhibition, significance): 2/16 (13%), 1/19 (5%), 62%, not calculated
Carcinogen: DIETHYLNITROSAMINE, 55-18-5, N-METHYL-N-NITROSOUREA, 684-93-5, N,N-DIBUTYLNITROSAMINE, 924-16-3, Carcinogen: DIETHYLNITROSAMINE, 55-18-5, N-METHYL-N-NITROSOUREA, 684-93-5, N,N-DIBUTYLNITROSAMINE, 924-16-3, 0.05% IN DIET BEGINNING POST CARCINOGEN TREATMENT AND CONTINUING TO WK 40 (STUDY DURATION: 40 WK), Route [Inhibitor]: ORAL, Strain/Sex: F344/MALE, Target Tissue: Type of Lesion: URINARY BLADDER: CARCINOMA, Dose [Carcinogen]: 100 MG/KG DIETHYLNITROSAMINE ONCE FOLLOWED BY 20 MG/KG N-METHYL-N-NITROSOUREA ON D 2, 5, 8 AND 11 THEN 0.05% N-N-DIBUTYL
  tumour outcome (control, treated, inhibition, significance): 1/16 (6%), 0/19 (0%), 100%, not calculated
Carcinogen: DIETHYLNITROSAMINE, 55-18-5, N-METHYL-N-NITROSOUREA, 684-93-5 N,N-DIBUTYLNITROSAMINE, 924-16-3, Carcinogen: DIETHYLNITROSAMINE, 55-18-5, N-METHYL-N-NITROSOUREA, 684-93-5 N,N-DIBUTYLNITROSAMINE, 924-16-3, 0.05% IN DIET BEGINNING POST CARCINOGEN TREATMENT AND CONTINUING TO WK 40 (STUDY DURATION: 40 WK), Route [Inhibitor]: ORAL, Strain/Sex: F344/MALE, Target Tissue: Type of Lesion: URINARY BLADDER: PAPILLOMA, Dose [Carcinogen]: 100 MG/KG DIETHYLNITROSAMINE ONCE FOLLOWED BY 20 MG/KG N-METHYL-N-NITROSOUREA ON D 2, 5, 8 AND 11 THEN 0.05% N-N-DIBUTYL
  tumour outcome (control, treated, inhibition, significance): 4/16 (25%), 1/19 (5%), 80%, not calculated
